# In US10060907B2, “Redoxindicators” (priority 2014, dated 2018):
# Read-outs that look alike come from different tables or passages of the source.
# Columns and labels:
# [1] = Cyclic voltammetry (CV) studies of the redoxindicators; format: physicochemical; details: vs Ag/AgCl, 0.9% NaCl at pH 7, phosphate buffer, Au working electrode, scan rate 100 mVs^−1
# Description: The CVs of the compounds synthesized in example 6-7 were recorded vs. the Ag/AgCl reference electrode in a phosphate buffer pH 7 (Table 4).
# E/mV vs Ag/AgCl, 0.9% NaCl at pH 7, phosphate buffer, Au working electrode, scan rate 100 mVs^−1
# Solubility in water = format: physicochemical
# [2] = Reaction of an indicator with NADH, UV/Vis of the reduced form; format: physicochemical; details: for UV/Vis reduced form, λmax after reduction with NADH: 50 mM phosphate buffer pH = 7; for UV-Vis λmax after reduction with NADH: water
# Description: The following were mixed in a cuvette: 50 μL of 10 mM solution of an indicator (1-methyl-3-[(E)-2-(1,3,3-trimethyl-3H-indolium-2-yl)ethenyl]quinolinium iodide trifluoromethanesulfonate) in distilled water, 950 μL of 50 mM phosphate buffer pH 7, 2 μL of 10 mM NADH solution in distilled water. A UV/Vis spectrum (400-1000 nm) was recorded every 7.5 sec for a 1 min after addition of NADH (resolution 2 nm) (FIG. 1). No further color change could be measured after 52.5 sec.
# [3] = system: glucose dehydrogenase 2 (GlucDH2); assay: Determination of glucose with GlucDH2/NAD and an indicator; format: biochemical; details: 0.5 mM indicator, NAD/GlucDH2, glucose 385 μM, 100 mM phosphate buffer pH 7
# Description: The following were mixed in a cuvette: 500 μL of 1.0 mM solution of an indicator (1-methyl-6-[(E)-2-(1,3,3-trimethyl-3H-indolium-2-yl)vinyl]quinolinium iodide trifluoromethanesulfonate) in 100 mM phosphate buffer pH 7, 500 μL of glucose dehydrogenase 2 (GlucDH2) solution (in 100 mM phosphate buffer pH 7 containing 4.0 mM NAD^+) at a concentration of 491 U/ml, 40 μL of 10 mM solution of glucose in distilled water. A UV/Vis spectrum (300-1000 nm) was recorded every 1 min for a 10 min after addition of glucose (resolution 1 nm) (FIG. 4).
# HEK-293 cells = assay: Cell viability testing, confocal fluorescence microscopy; format: cell-based; details: 20 μM
# Description: Viable HEK-293 cells and 4% paraformaldehyde killed HEK-293 cells were incubated with 1-methyl-3-[(E)-2-(1,3,3-trimethyl-3H-indolium-2-yl)ethenyl]quinolinium iodide trifluoromethanesulfonate (20 μM) in 10 mM PBS pH 7 at 37 C. Confocal fluorescence microscope images were recorded at 611 nm using excitation at 561 nm. […] The resulting cells retained viability for at least 24 h.
# [4] = Fluorometric determination of NADH; details: 20 μM indicator, 4 μM NADH, 10 mM PIPES pH 7, excitation at 535 nm
# Description: The following were mixed in a cuvette: 2 μL of 10 mM solution of an indicator (1-methyl-3-[(E)-2-(1,3,3-trimethyl-3H-indolium-2-yl)ethenyl]quinolinium iodide trifluoromethanesulfonate) in distilled water, 1000 μL of 10 mM PIPES buffer pH 7, 0.5-4 μL of 1 mM NADH solution in distilled water. The mixture was incubated for 30 min at room temperature. Fluorescence (550-800 nm) was recorded using excitation at 535 nm. (FIG. 10, 11).
# [5] = Evaluation of the reaction rates with ascorbate; details: sodium ascorbate
# Description: (§1) Two solutions of the redoxindicator 1-methyl-6-((E)-3-oxo-3-phenyl-propenyl)-quinolinium methosulfate (5.00 mg, 0.013 mmol) in 1.00 ml water were each treated with an excess of NADH (disodium salt) or sodium ascorbate, respectively. […] After a few minutes, a larger amount of an orange precipitate was obtained, probably the insoluble dihydrochinoline. […] Even after 16 h no precipitate was found.
# (§2) Two solutions of the redoxindicators 1-methyl-3-[(E)-2-(1,3,3-trimethyl-3H-indolium-2-yl)ethenyl]quinolinium iodide trifluoromethanesulfonate (0.005 mmol) in 1.00 ml of 50 mM phosphate buffer pH 7 were each treated with 2 μL of 10 mM NADH (disodium salt) or sodium ascorbate solutions in distilled water, respectively. The absorbance at 535 nm was measured in relation to time (FIG. 3).
# [6] = Evaluation of the reaction rates with NADH; details: for Colour change of the solution treated with NADH: NADH (disodium salt); for Turnover rates with NADH compared with ascorbate: NADH vs ascorbate
# Description: as §1, §2
# [7] = Evaluation of extinction coefficient under pseudo-first-order reaction conditions; format: physicochemical; details: 535 nm, 50 mM phosphate buffer pH 7, from slope of ΔAbs vs initial NADH
# Description: The following were mixed in a cuvette: 100 μL of 10 mM solution of 1-methyl-3-[(E)-2-(1,3,3-trimethyl-3H-indolium-2-yl)ethenyl]quinolinium iodide trifluoromethanesulfonate in distilled water, 900 μL of 50 mM phosphate buffer pH 7, 1-3 μL of 10 mM NADH in distilled water. Change in absorbance at 535 nm was recorded after 5 min, when no further color change could be measured (FIG. 3, 9).
# This ε value is nine times greater than those of the reduced form of MTT (Czerlinski, G. H.; et al; Journal of Biochemical and Biophysical Methods 1988, 15, 241).
compound,measurement,setting,value
C[N+]1=C(/C=C/c2ccc3c(ccc[n+]3C)c2)C(C)(C)c2ccccc21.O=S(=O)([O-])C(F)(F)F.[I-] [drawing 52],Reduction potential,[1],−634 mV
"C[N+]1=C(/C=C/c2ccc3c(ccc[n+]3C)c2)C(C)(C)c2ccccc21.O=S(=O)([O-])C(F)(F)F.[I-] [drawing 35, 1-methyl-6-[(E)-2-(1,3,3-trimethyl-3H-indolium-2-yl)vinyl]quinolinium iodide trifluoromethanesulfonate]",solubility,Solubility in water,≥ 15 mM
same,"UV/Vis reduced form, λmax after reduction with NADH",[2],517 nm
same,Absorbance λmax after adding glucose,[3],516 nm
C[N+]1=C(/C=C/c2c[n+](C)cc3ccccc23)C(C)(C)c2ccccc21.O=S(=O)([O-])C(F)(F)F.[I-],Reduction potential,[1],−424 mV
C[N+]1=C(/C=C/c2ccc[n+](C)c2)C(C)(C)c2ccccc21.O=S(=O)([O-])C(F)(F)F.[I-],Reduction potential,[1],−564 mV
CC[n+]1cc(/C=C/C2=[N+](C)c3ccccc3C2(C)C)c2ccccc2c1.O=S(=O)([O-])C(F)(F)F.[I-],Reduction potential,[1],−454 mV
C[N+]1=C(/C=C/c2ccc3c(c2)nc2ccccc2[n+]3C)C(C)(C)c2ccccc21.O=S(=O)([O-])C(F)(F)F.[I-],UV-Vis λmax after reduction with NADH,[2],LC-MS m/z 379.3 (M^+) HRMS m/z 378.1970 ([M − H]^+) UV-Vis (water) after reduction with NADH: λmax 740 nm;
CC[n+]1cc(/C=C/C2=[N+](C)c3ccccc3C2(C)C)cc2ccccc21.O=S(=O)([O-])C(F)(F)F.[I-],Reduction potential,[1],−524 mV
"C[N+]1=C(/C=C/c2cc3ccccc3[n+](C)c2)C(C)(C)c2ccccc21.O=S(=O)([O-])C(F)(F)F.[I-] [XXIV, 1-methyl-3-[(E)-2-(1,3,3-trimethyl-3H-indolium-2-yl)ethenyl]quinolinium iodide trifluoromethanesulfonate]",solubility,Solubility in water,≥ 10 mM
same,Time after addition of NADH after which no further color change could be measured,"[2]; 0.5 mM indicator, 20 μM NADH, 50 mM phosphate buffer pH 7",52.5 s
same,"UV/Vis reduced form, λmax after reduction with NADH",[2],535 nm
same,"Fluorescence intensity, viable vs dead HEK-293 cells",HEK-293 cells,much higher in viable cells than in dead cells
same,Fluorescence intensity in viable HEK-293 cells,"HEK-293 cells; 10 mM PBS pH 7, 37 C, 611 nm, excitation 561 nm",fluorescence intensity was enhanced
same,Cellular uptake in viable HEK-293 cell,HEK-293 cells; confocal image,showed cellular uptake
same,Fluorescence intensity in paraformaldehyde killed HEK-293 cells,"HEK-293 cells; 4% paraformaldehyde killed cells, 10 mM PBS pH 7, 37 C",did not show enhancement in fluorescence intensity
same,Time for which treated cells retained viability,HEK-293 cells; viable HEK-293 cells,at least 24 h
same,Fluorescence emission λmax after adding NADH,[4],560 nm
same,Colour change of the solution treated with ascorbate,[5],did not change color
same,Colour change of the solution treated with NADH,[6],changed rapidly from nearly colorless to pink
same,Turnover rates with NADH compared with ascorbate,[6],much higher than with ascorbate
same,Extinction coefficient ε of the reduced form,[7],69.3 mM⁻¹ cm⁻¹
CC[n+]1cc(/C=C/C2=[N+](C)c3ccccc3C2(C)C)cc2ccccc21,solubility,Solubility in water,≥ 4 mM
C[N+]1=C(/C=C/c2c[n+](C)cc3ccccc23)C(C)(C)c2ccccc21,solubility,Solubility in water,≥ 25 mM
CC[n+]1cc(/C=C2\CCC[N+]3=C2C(C)(C)c2ccccc23)cc2ccccc21,solubility,Solubility in water; Cl^− form,≥ 0.3 mM
C[N+]1=C(/C=C/c2cccc3c2ncc[n+]3C)C(C)(C)c2ccccc21.O=S(=O)([O-])C(F)(F)F.[I-],solubility,Solubility in water,≥ 9 mM
same,UV-Vis λmax after reduction with NADH,[2],535 nm
"COS(=O)(=O)[O-].C[n+]1cccc2cc(/C=C/C(=O)c3ccccc3)ccc21 [MOPPQ, 1-Methyl-6-((E)-3-oxo-3-phenyl-propenyl)-quinolinium methosulfate]",Colour change of the solution treated with ascorbate,[5],showed only a pale orange color
same,Colour change of the solution treated with NADH,[6],changed rapidly from nearly colorless to orange
same,Turnover rates with NADH compared with ascorbate,[6],much higher than with ascorbate
C[N+]1=C(/C=C/c2cc3ccccc3[n+](C)c2)C(C)(C)c2ccccc21.O=S(=O)([O-])C(F)(F)F.[I-] [drawing 50],Reduction potential,[1],−534 mV
C[N+]1=C(/C=C/c2cccc3c2nc2ccccc2[n+]3C)C(C)(C)c2ccccc21.O=S(=O)([O-])C(F)(F)F.[I-],solubility,Solubility in water,≥ 4 mM
C[N+]1=C(/C=C/c2ccc(-c3ccc(/C=C/C4=[N+](C)c5ccccc5C4(C)C)c[n+]3C)[n+](C)c2)C(C)(C)c2ccccc21.O=S(=O)([O-])C(F)(F)F.O=S(=O)([O-])C(F)(F)F.[I-].[I-],solubility,Solubility in water,≥ 15 mM
"CCOc1cccc2c1nc1c(/C=C/C3=[N+](C)c4ccccc4C3(C)C)cccc1[n+]2C.[Cl-].[Cl-] [9-ethoxy-10-methyl-1-[(E)-2-(1,3,3-trimethyl-3H-indolium-2-yl)vinyl]phenazinium]",solubility,Solubility in water,≥ 7 mM
C[N+]1=C(/C=C/c2ccc[n+](C)c2)C(C)(C)c2ccccc21,solubility,Solubility in water,≥ 114 mM
